Where a SMILES comes first, the peptide text is derived from it. The star is where a group is joined. Cbz = O=C(OCc1ccccc1)*
System: PBRM1
Experiment: Immunoblot of PBRM1 / CDC20 protein level in cells treated with tool compounds
Type: cell-based
Conditions: for CDC20 protein level / PBRM1 protein level: cell cycle block, 24 h, Figure S1J,K
Method: Figure 3 Autophagy selectively degrades PBRM1 via the autophagic receptor p62 in a CDC20‐dependent manner. A) IB analysis of WCL lysates derived from WT or CDC20 knockdown 786‐O and 769‐P cells treated with NH4Cl (20 mM, 24 h) before harvesting. B) IB analysis of WCL lysates derived from 786‐O and 769‐P cells treated with NH4Cl (20 mM) for indicated hours. C) IB analysis of WCL lysates derived from 786‐O and 769‐P cells treated with chloroquine (CQ, 50 µM) for indicated hours. D) IB analysis of WCL lysates derived from 786‐O and 769‐P cells treated with glucose starvation (G.S.) for indicated hours. E) IB analysis of WCL lysates derived from 786‐O and 769‐P cells treated with serum starvation (S.S.) for indicated hours. F) IB analysis of WCL lysates derived from wild‐type (WT) or ATG5 knockdown 786‐O and 769‐P cells treated with serum starvation (S.S.) for indicated hours before harvesting. G) IB analysis of WCL and anti‐HA immunoprecipitates derived from 293T cells transfected with HA‐p62 and V5‐PBRM1. H) IB analysis of WCL and anti‐Flag immunoprecipitates derived from 293T cells transfected with Flag‐p62 and V5‐PBRM1. I) IB analysis of WCL lysates derived from shScr or p62 knockdown 786‐O and 769‐P cells using shRNA. J) IB analysis of WCL lysates derived from NC or p62 knockdown 786‐O cells using siRNA. NC, negative control. K,L) Immunoblotting analysis (K) and quantification (L) of cell lysates of WT and p62 knockdown 786‐O cells treated with cycloheximide (CHX, 20 µg ml^−1) at indicated time points. M) IB analysis of WCL and GST‐pull‐down products derived from 293T cells transfected with GST‐p62 and V5‐PBRM1. 24 h post transfection, cells were treated with serum starvation (S.S.) for 24 h before harvesting the cells. N) IB analysis of WCL and GST‐pull‐down products derived from 293T cells transfected with GST‐p62, HA‐CDC20 and V5‐PBRM1. O) IB analysis of WCL and GST‐pull‐down products derived from WT and CDC20 knockdown 293T cells transfected with GST‐p62 and V5‐PBRM1. P) Schematic representation of truncated constructs of p62 for mapping the interaction domain with PBRM1. Q) IB analysis of WCL and GST‐pull‐down products derived from 293T cells transfected with V5‐PBRM1 and indicated constructs of GST‐p62 plasmids. R) Schematic representation of truncated constructs of p62 for mapping the interaction domain with PBRM1. S) IB analysis of WCL and GST‐pull‐down products derived from 293T cells transfected with V5‐PBRM1 and indicated constructs of GST‐p62 plasmids.
Cells were washed 3 times with ice‐cold phosphate‐buffered saline (PBS). The appropriate RIPA or IP buffer was added, which was mixed with protease and phosphatase inhibitors in advance. After centrifugation, the cell lysate supernatant was collected and checked using the BCA qualification system. The appropriate protein‐loading buffer was added to the protein lysates and denatured in a boiling water bath for 5 min. Each sample contained 30 µg protein, which was loaded onto 8% or 10% SDS‐PAGE gels and transferred to a polyvinylidene fluoride (PVDF) membrane. Then, the PVDF membranes were […] in fresh milk for 1 h at room temperature. Primary antibodies of the targets were added to the PVDF membranes and incubated overnight at 4 °C. The cells were rinsed 3 times with TBST buffer, followed by incubation with peroxidase‐conjugated antibodies at room temperature for 1 h. After washing, the PVDF membranes were analyzed and visualized using an ECL system (Bio‐Rad, Hercules, CA, USA).
Supplementary Figure 1. PBRM1 fluctuates during cell cycle progression. (A) IB analysis of WCL and anti-HA immunoprecipitates derived from 293T cells transfected with HA-CDC20 and Flag-PBRM1. (B) Schematic representation of truncated constructs of CDC20 for mapping the interaction domain with PBRM1. (C) IB analysis of WCL and GST-pull-down products derived from 293T cells transfected with Flag-PBRM1 and indicated constructs of GST-CDC20. Vec, vector. […]

[1] = 786-O and 769-P cells, NH4Cl 20 mM, chloroquine 50 µM, indicated hours

SMILES | protein level of PBRM1 [1] | CDC20 protein level (786-O and 769-P cells) | PBRM1 protein level (786-O and 769-P cells) | protein level of PBRM1 (renca and 786-O cells, MG132 10 μM 12 hours, Figure S5O)
Cl.N [NH4Cl, ammonium chloride] | increased |  |  | 
CCN(CC)CCCC(C)Nc1ccnc2cc(Cl)ccc12 (stereo not shown) [chloroquine] | upregulated |  |  | 
CC(=O)O[C@H]1C(=O)[C@@]2(C)[C@H]([C@H](OC(=O)c3ccccc3)[C@]3(O)C[C@H](OC(=O)[C@H](O)[C@@H](NC(=O)c4ccccc4)c4ccccc4)C(C)=C1C3(C)C)[C@]1(OC(C)=O)CO[C@@H]1C[C@@H]2O [taxol, paclitaxel] |  | decreased | upregulated | 
COC(=O)Nc1nc2ccc(C(=O)c3cccs3)cc2[nH]1 [nocodazole] |  | decreased | upregulated | 
CC(C)C[C@@H](C=O)NC(=O)[C@H](CC(C)C)NC(=O)[C@H](CC(C)C)NC(=O)OCc1ccccc1 [MG132] (Cbz-Leu-Leu-Leu-aldehyde) |  |  |  | enhance the protein level of PBRM1

Source: PMC11791976, “CDC20‐Mediated Selective Autophagy Degradation of PBRM1 Affects Immunotherapy for Renal Cell Carcinoma” (Advanced Science, 2024)
